Among the data in article PMC12064818, “A general assay platform to study protein pharmacology using ligand-dependent structural dynamics” (Nature Communications, 2025) are IC50 values, retold here.

For the assay, the target named is T1, FLuc-C-HiBiT (Photinus pyralis, UniProt P08659).
T1 construct: firefly luciferase with C-terminal HiBiT tag, E. coli expressed
Description: biochemical. The note with it: enzyme activity, 10 uM ATP; read-out: IC50 or SDR50 (mM) / FLuc E.

Some results are limits rather than exact numbers.

T1 sequence (P08659 whole entry, looked up): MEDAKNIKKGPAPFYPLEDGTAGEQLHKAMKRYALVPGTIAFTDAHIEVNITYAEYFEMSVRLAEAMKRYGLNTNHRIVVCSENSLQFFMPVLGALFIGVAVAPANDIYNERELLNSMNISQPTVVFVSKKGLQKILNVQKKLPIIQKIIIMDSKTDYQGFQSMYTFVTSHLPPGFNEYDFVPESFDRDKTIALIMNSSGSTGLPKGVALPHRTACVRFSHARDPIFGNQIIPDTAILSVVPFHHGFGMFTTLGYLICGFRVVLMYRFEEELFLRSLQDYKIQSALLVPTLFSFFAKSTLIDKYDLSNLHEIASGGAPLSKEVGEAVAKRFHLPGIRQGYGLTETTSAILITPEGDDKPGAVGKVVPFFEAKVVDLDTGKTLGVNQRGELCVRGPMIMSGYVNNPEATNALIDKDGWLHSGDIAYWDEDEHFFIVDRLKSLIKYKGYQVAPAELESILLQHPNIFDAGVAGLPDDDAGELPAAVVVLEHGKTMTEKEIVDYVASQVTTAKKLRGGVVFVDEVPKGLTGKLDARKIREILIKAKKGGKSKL

`Clc1ccc2c(c1)-n1cc(-c3ccccc3)nc1CO2` [NCGC00164952-01]: the IC50 is over 30 µM. For `CC1=C[C@@H](CNC(=O)c2ccncc2)[C@H](C(C)C)C[C@H]1CC(=O)N1CCOCC1` [NCGC00394503-01] the value was over 30 µM; for `O=C(Nc1cccc(-c2ccc(N3CCOCC3)nn2)c1)Nc1ccccc1F` [NCGC00427598-01], 2.79 µM; for `Cc1ccc(C(=O)Nc2ccc3oc(-c4ccccc4C)nc3c2)cc1` [NCGC00118998-01], over 30 µM. On to `O=C(Nc1cccnc1)c1nc2c(o1)CCN(Cc1cccc(O)c1)CC2` [NCGC00413425-01], for which the IC50 was determined as 20.2 µM. On to `COc1c(C)cccc1C(=O)Nc1ccc(-c2nc3ccccc3s2)c(Cl)c1` [NCGC00102004-01], for which the IC50 was over 30 µM. Consider `COCC(=O)Nc1nc2c(s1)C[C@]1(C)CC[C@@H]3[C@H](OC(=O)[C@H]3C)[C@H]1[C@@H]2C` [NCGC00391224-01], for which the IC50 came out at 1.61 µM. Regarding `CCOc1ccc(NC(=O)Nc2cccc(C(=O)O)c2)cc1` [NCGC00689880-01], the IC50 turned out to be 0.00881 µM. The result for `COCCN1CCOc2nc(-c3cccc(N(C)C)c3)ncc2C1=O` [NCGC00413458-01] reads 18 µM; that for `O=C(Nc1cccc(F)c1)Nc1cccc(-c2ccc(N3CCCCC3)nn2)c1` [NCGC00427644-01], 0.989 µM; that for `O=C(c1ccc(F)cc1)N1CCn2c(nnc2C2CC2)C1` [NCGC00480252-01], over 30 µM. With `Cc1cccc(C(=O)Nc2ccc(-c3nc4ccccc4s3)c(C)c2)c1` [NCGC00137838-01], the IC50 amounted to 9.89 µM. The result for `Cc1ccc(Cn2cc(-c3ccncc3)cc2C(=O)O)cc1` [NCGC00432741-01] reads over 30 µM; that for `COCCNc1ncc(-c2cccc(NC(C)=O)c2)c2c1OCC2` [NCGC00412815-01], 16.1 µM; that for `c1ccc(Nc2ncc(-c3cccnc3)c3c2OCC3)cc1` [NCGC00412806-01], 22.6 µM. For `CN(C)c1ccc(-c2nc(C3CCOC3)no2)cc1` (centres unmarked) [NCGC00447436-01] the value was 9.89 µM. For `COc1ccc2c(c1)C1(CCN(C(=O)Nc3ccc4c(c3)OCCO4)C1)C(=O)N2C` (centres unmarked) [NCGC00435246-01] the value was 11.1 µM; for `Fc1ccc(-c2cn3cc(Cc4ccccc4)sc3n2)cc1` [NCGC00102110-01], 0.279 µM.

Turning to `O=C1OCCN1CCNc1ccc(-c2nc(-c3ccccc3F)no2)cn1` [NCGC00428584-01], the IC50 turned out to be 12.4 µM. With `CN1c2cc(C(=O)Nc3cccc(F)c3)ccc2C(=O)N2CCCCCC21` (centres unmarked) [NCGC00452183-01], the IC50 was 12.4 µM.

With `COc1ccc(CCNC(=O)C2CCCN(c3nc4c(C)cc(C)cc4s3)C2)cc1OC` (centres unmarked) [NCGC00113075-01], the IC50 was found to be 5.56 µM. The result for `Cc1ccc(CN2C(=O)OC(c3cccc(NC(=O)c4ccc(C)cc4)c3)C2C(=O)NCC(C)C)cc1` (centres unmarked) [NCGC00475004-01] reads 8.81 µM; that for `O=C(Nc1cccc(-c2ccc(N3CCOCC3)nn2)c1)Nc1cc(F)ccc1F` [NCGC00427590-01], 2.48 µM; that for `CC(Cn1cccn1)Nc1ccc(-c2nc(-c3ccccc3F)no2)cn1` (centres unmarked) [NCGC00427483-01], 9.89 µM. The result for `COc1ccc(C(=O)Nc2cc(C(C)C)c(O)c([S+](=O)([O-])c3ccc(Cl)cc3)c2C)cc1` [NCGC00102536-01] reads 12.4 µM; that for `O=C(Nc1cccnc1)c1nc2c(o1)CCN(Cc1nccs1)CC2` [NCGC00413267-01], 20.2 µM. The result for `COc1ccc(-c2noc(Nc3ccc(C)c(C)c3)n2)cc1` [NCGC00422330-01] reads 9.89 µM.

In the case of `O=C(O)c1cccc(-c2noc(-c3ccc(F)cc3)n2)c1` [NCGC00168761-01], the IC50 was found to be 0.00442 µM. Turning to `Cc1ccc(NC(=O)c2ncoc2-c2ccco2)cc1Cl` [NCGC00131543-01], the IC50 came out at 6.24 µM. Regarding `Cc1ccccc1Cn1cccc(C(=O)Nc2nc3ccccc3s2)c1=O` [NCGC00134725-01], the IC50 worked out at 0.881 µM. For `CC(=O)Nc1cc(-c2nc3ccccc3s2)ccc1C` [NCGC00098099-01] the value was 7 µM; for `Cc1ccc(-c2nnc(SCc3ccccc3)o2)cc1` [NCGC00141131-01], 11.1 µM. The result for `Cc1ccc(-n2ncc3c(NC4CCCC4)ncnc32)cc1` [NCGC00138985-01] reads 0.624 µM; that for `O=C(Nc1ccc(Cl)cc1)Nc1ccc2n(c1=O)C[C@H]1C[C@@H]2CN(C(=O)c2ccc3ccccc3c2)C1` [NCGC00395236-01], 12.4 µM. In the case of `O=C(c1ccc2oc(-c3cccc(F)c3)nc2c1)N1CCCCC1CCO` (centres unmarked) [NCGC00427691-01], the IC50 was 14 µM. For `CCOC(=O)c1cccc(Nc2nc(-c3ccccc3)no2)c1` [NCGC00422292-01] the value was 6.24 µM; for `Cc1cc(NC(=O)c2ccccc2F)ccc1-c1nc2ccccc2s1` [NCGC00137834-01], 2.48 µM.

With `COc1cccc(CN2CCc3nc(C(=O)Nc4nc(C)cs4)oc3CC2)c1` [NCGC00413306-01], the IC50 came to 18 µM. As to `Cc1ccc(-c2cc(C(=O)N3CCC(Cc4nncn4CC4CC4)CC3)c3ccccc3n2)cc1C` [NCGC00456240-01], the IC50 came out at 1.97 µM. For `Cc1ccc(C2=CC(c3ccccc3C)n3c(nc4ccccc43)N2)cc1` (centres unmarked) [NCGC00140747-01], the IC50 stood at 4.42 µM.

Take `CCc1cccc(NC(=O)c2cc(-c3ccc[nH]3)n[nH]2)c1` [NCGC00454482-03]: the IC50 was 9.89 µM. For `O=C(Nc1ccccc1)c1nc2c(o1)CCN(Cc1ccc(F)cc1)CC2` [NCGC00413289-01] the value was 18 µM; for `Cn1cc(CN2CCc3nc(C(=O)Nc4ccccc4)oc3CC2)cn1` [NCGC00413305-01], 18 µM; for `c1ccc(-c2cnc(Nc3ccc4c(c3)OCCO4)c3c2CCO3)cc1` [NCGC00412769-01], 16.1 µM. As to `N[S+](=O)([O-])c1cccc(N/C=C2\C(=O)Nc3ccccc32)c1` [NCGC00242167-02], the IC50 was over 30 µM. In the case of `c1ccc(Nc2cc3c(cn2)CN(Cc2ccsc2)CCN3)cc1` [NCGC00411091-01], the IC50 turned out to be 14.3 µM. For `O=C(Nc1cccnc1)c1cc(-c2ccc(Cl)cc2)on1` [NCGC00105781-01] the value was 2.48 µM.

`COc1ccc(-c2ccc(CN3CC(C)(NC(C)=O)C3)s2)cn1` [NCGC00410343-01]: the IC50 came to 20.2 µM. The result for `O=C1NCCCCCCN(C(=O)Nc2ccc3c(c2)OCCO3)[C@H]2CCCC[C@@H]12` [NCGC00466580-01] reads 8.81 µM; that for `CCN1C(=O)CCc2cc(NC(=O)c3ccc(OC(F)(F)F)cc3)ccc21` [NCGC00425397-01], 11.1 µM; that for `CN1CCCN(C(=O)Nc2ccc3c(c2)OCCO3)c2ccccc21` [NCGC00470832-01], 9.89 µM. For `CN1CCNc2cc(Nc3ccc(F)cc3)ncc2C1` [NCGC00411261-01] the value was 20.2 µM; for `CCNC(=O)N[C@@H]1C=C[C@@H](c2c(C)nn(-c3ccc(C(F)(F)F)cc3)c2C)C1` [NCGC00397974-01], 14.3 µM. As to `Cc1ccc(OCc2nc(C3CN(C(=O)c4n[nH]c5ccccc45)C3)no2)cc1` [NCGC00456269-01], the IC50 is 8.81 µM. The result for `O=C(O)c1ccc(-c2nnc3ccc(NC(=O)C4CCC4)cn23)cc1` [NCGC00432681-01] reads 11.1 µM; that for `COc1ccc(C(=O)Nc2cc(C)c(O)c(-c3nc4ccccc4s3)c2)cc1OC` [NCGC00103306-01], 1.4 µM; that for `O=C(Nc1nc2c(F)cc(F)cc2s1)c1ccc2c(c1)OCCO2` [NCGC00134168-01], 1.76 µM. The result for `COC(=O)c1ccccc1NC(=O)CCc1c(C)nc2cc(-c3ccc(Cl)cc3)nn2c1C` [NCGC00110028-01] reads 9.89 µM. In the case of `COc1ccc(C(=O)Nc2ccccc2-c2nc3ccccc3s2)cc1OC` [NCGC00102625-01], the IC50 was over 30 µM.

`COc1cccc(C(=O)NCCn2ccn3nc(-c4ccc(C)cc4C)cc3c2=O)c1OC` [NCGC00456963-01]: the IC50 stood at 9.89 µM.

With `N#Cc1c(-n2ncnc2-c2ccccc2Cl)sc2c1CCCCC2` [NCGC00099372-01], the IC50 was found to be 2.21 µM. With `OC1CCN(c2ncnc3c2cnn3-c2ccccc2)CC1` [NCGC00626234-01], the IC50 turned out to be 15.7 µM. For the compound `Cc1ccc(-c2cc3c(=O)n(CCNC(=O)c4cccc(Cl)c4)ccn3n2)c(C)c1` [NCGC00456978-01], the IC50 was 3.94 µM. For `COc1ccc(-c2cnc(Nc3cccc(N[S+](C)(=O)[O-])c3)c3c2CCO3)cn1` [NCGC00412697-01] the value was 18 µM; for `O=c1oc2c(CN3CCCC3)c(O)ccc2cc1-c1ccccc1` [NCGC00134332-01], over 30 µM; for `C[C@@H]1CN(c2cnc3ccccc3n2)CC[C@@]1(O)C1CCC1` [NCGC00441645-01], 11.1 µM. `Cc1ccc(NC(=O)c2ccc3snnc3c2)cc1C` [NCGC00114783-01]: the IC50 is 8.81 µM.

Turning to `Cc1ccc(-n2ncc3c(N4CCCC(C)C4)ncnc32)cc1C` (centres unmarked) [NCGC00523591-01], the IC50 was determined as 0.157 µM. The result for `c1ccc(COc2ccccc2-c2nc3ccccc3s2)cc1` [NCGC00167623-01] reads 12.4 µM. For `O=C(NCc1cccc(Cl)c1)C1CCCN(c2nn3cc(-c4ccc(F)cc4)nc3s2)C1` (centres unmarked) [NCGC00123714-01] the value was 8.81 µM; for `O=[S+]([O-])(c1cccc(Cl)c1)n1c(/C=C/c2ccccc2Cl)nc2ccccc21` [NCGC00139448-01], 0.176 µM. For `COc1ccc(-c2nc3ccccc3o2)cc1NC(=O)c1cccnc1` [NCGC00103240-01] the value was 12.4 µM; for `COc1ccc(C(=O)Nc2cccc(-c3nc4ccccc4s3)c2)cc1` [NCGC00596810-02], over 30 µM; for `CCOCC(=O)N1c2ccccc2CC1c1noc(C(C)C)n1` (centres unmarked) [NCGC00471496-01], 12.4 µM.

As to `Cc1ccccc1CCNC(=O)c1ccc2c(c1)nc1n2CCOC1` [NCGC00133426-01], the IC50 turned out to be 4.95 µM. As for `COc1cc(C(=O)NC2CCCN(c3cc(-c4ccc(F)cc4)n[nH]3)C2)cc(OC)c1OC` (centres unmarked) [NCGC00437480-01], the IC50 was determined as 11.1 µM. For `Cc1ccc2nc(-c3ccc(NC(=O)COc4c(C)ccc(C)c4C)cc3)sc2c1` [NCGC00099580-01] the value was 11.1 µM.
